The target in this assay is T1, Aβ1-42 (Homo sapiens, UniProt P05067).
T1 construct: containing 0.2 µM FITC-Aβ(1-42) and 0.8 µM Aβ(1-42)
Kind of assay: FRET assay of Aβ1-42 oligomer (ADDL) assembly inhibition. The assay is classed as biochemical. The note with it: for pIC50: assay of Example 1, 0.2 µM FITC-Aβ(1-42) and 0.8 µM Aβ(1-42), 37°C, six concentrations from about 30 µM to about 0.05 µM. The source says: Fluorescence (or Förster) Resonance Energy Transfer (FRET) is a distance-dependent, non-radiative transfer of energy in which the de-excitation of one fluorophore (donor) is coupled to excitation of another fluorophore (acceptor). FRET occurs if (1) the quantum of energy emitted by a donor fluorophore corresponds to an acceptor fluorophore's excitation energy, (2) the orientations of donor and acceptor transition dipoles are nearly parallel and (3) the donor fluorescent emission spectrum overlaps the acceptor absorption spectrum. In this assay, assembly of Aβ1-42 oligomer formation is monitored by FRET using N-terminal conjugates of fluorescein-Aβ1-42 as both the donor and acceptor fluorophore (fluorescein-fluorescein Ro~ 45 Ǻ). Aβ1-42 monomers assembling into oligomeric species results in a decrease of fluorescence as the fluorescein labeled Aβ1-42 peptides become proximal to each other and FRET efficiency increases. Inhibition of Aβ1-42 assembly is observed as the absence or attenuation of fluorescein quenching. FRET and FP assays are performed in 384-well Coming Non-Binding Surface, black, opaque microtiter plates, and the assay buffer consists of 50 mM MOPS-Tris (pH 8.0) with 100 mM MgCl2. The assay volume, containing 0.2 µM FITC-Aβ(1-42) and 0.8 µM Aβ(1-42), is 50 µl and the temperature is 37°C. ADDL assembly is monitored on a Tecan GENios Pro plate reader, exciting at a wavelength of 485 nm and detecting emission at a wavelength of 515 nm. Kinetic traces are collected by recording fluorescence intensity and polarization readings every five minutes over about a three to about a six-hour time course. […] Positive control reactions contain all buffer components in the absence of added small molecule or antibody reagents. To test for ADDL assembly inhibition, the non-peptidic compound was incubated with the peptide mixture at six concentrations from about 30 µM decreasing to about 0.05 µM.

pIC50: −log10 of the molar value.

T1 sequence (P05067 672-713 limits assumed): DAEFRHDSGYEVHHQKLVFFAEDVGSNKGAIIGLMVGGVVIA

Take `NCCCS(=O)(=O)O` [Alzhemed, 3-amino-1-propanesulfonic acid, reference compound]: the “inhibition of Aβ1-42 monomer assembly into Aβ oligomers” value (standard FRET assay conditions of Example 1, comparative example, FIG 2) is “inability”.
In general, pIC50 refers to the negative decadic logarithm of the IC50, by convention in mol/L. Low readings indicate a high IC50, high ones a low IC50. As to `COc1ccccc1NC(=O)C(=O)N/N=C(/CC(=O)c1cccs1)C(F)(F)F` [Compound 1, N-(2-Methoxy-phenyl)-2-oxo-2-{N'-[3-oxo-3-thiophen-2-yl-1-trifluoromethyl-prop-(Z)-ylidene]-hydrazino}-acetamide], the pIC50 is 5.41.
The same measure, in the same setting: the same measure for `CCOC(=O)c1c(NC(=O)C(=O)N/N=C/c2cccc(OC)c2O)sc2c1CCC(C)C2` (centres unmarked) [Compound 2, 2-{[1-(2-Hydroxy-3-methoxy-phenyl)-meth-(E)-ylidene-hydrazinooxalyl]-amino}-6-methyl-4,5,6,7-tetrahydro-benzo[b]thiophene-3-carboxylic acid ethyl ester]: 5.46; for `CCOC(=O)c1c(NC(=O)C(=O)N/N=C/c2c(O)ccc3ccccc23)sc2c1CCC(C)C2` (centres unmarked) [Compound 3, 2-{[1-(2-Hydroxynaphthalen-1-yl)-meth-(E)-ylidene-hydrazinooxalyl]-amino}-6-methyl-4,5,6,7-tetrahydro-benzo[b]thiophene-3-carboxylic acid ethyl ester]: 5.36.
For `CCOC(=O)c1c(NC(=O)C(=O)N/N=C/c2ccccc2O)sc2c1CCC(C)C2` (centres unmarked) [Compound 4, 2-{[1-(2-Hydroxyphenyl)-meth-(E)-ylidene-hydrazinooxalyl]-amino}-6-methyl-4,5,6,7-tetrahydro-benzo[b]thiophene-3-carboxylic acid ethyl ester], the pIC50 is 5.96. In addition, where the note is “Test Compound A ranging from 0.05 to 3 mM, FIG. 1”, the “inhibition of Aβ1-42 oligomer assembly” value is “dose dependent inhibition”.
Molecule `COc1ccccc1NC(=O)C(=O)N1N=C(CC(C)C)CC1(O)C(F)(F)F` (centres unmarked) [Compound 5, 2-(5-hydroxy-3-isobutyl-5-(trifluoromethyl)-4,5-dihydro-1H-pyrazol-1-yl)-N-(2-methoxyphenyl)-2-oxoacetamide] gave a pIC50 of 5.49.
The molecule `O=C(N/N=C/c1ccc2ccccc2c1O)c1ccccc1O` [Compound 6] showed a pIC50 of 5.42.
